Data published in US12344610B2, “APOL1 inhibitors and methods of use” (Maze Therapeutics, Inc., priority 2022, dated 2025).
Like-named read-outs stand apart in the source and are kept apart here.

How the values were obtained:
Format in all cases: cell-based
[1] = system: HEK293 cells overexpressing APOL1 G2; test: APOL1 G2 HEK293 cell rescue assay (reversal of cell death caused by overexpression of APOL1); details: geometric mean of at least 2 assay runs, † = single assay run
In short: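 EC50 is the half-maximal effective concentration for reversing cell death driven by APOL1 G2 overexpression in HEK293 cells. Reported as geometric mean of at least 2 runs on separate days, each run averaging duplicate wells per plate; some values from a single run.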

[2] = system: HEK293 clonal cell line overexpressing APOL1 G1; test: APOL1 G1 HEK293 cell rescue assay (Example B3); details: geometric mean of at least 2 runs, † = single run, ¥ = concentration at 50% rescue estimated (no sigmoidal curve)
In short: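 HEK293 clonal line overexpressing APOL1 G1; EC50 is half-maximal reversal of APOL1-induced cell death. Values are the geometric mean of ≥2 runs on separate days, each run the average of duplicate wells. Where no sigmoidal curve could be fitted, the concentration giving 50% rescue was estimated.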

[3] = system: Trypanosoma brucei Lister 427 VSG221 with APOL1 G0 recombinant protein; test: APOL1 G0 trypanosome cell rescue assay (Example B5); details: geometric mean of at least 2 assay runs, † = single assay run
Procedure: (§1) APOL1 G0/G1/G2 viability assay for measurement of cytotoxicity reversal by compound in trypanosomes (APOL1 G0/G1/G2 trypanosome cell rescue assay).
(§2) APOL1 protein expression and purification. The mature from of APOL1 proteins, residues 28-398, were expressed from a pET28a vector with an N-terminal His-tag and TEV cleavage site. Proteins were expressed in Escherichia coli BL21-CodonPlus (DE3)-RIPL cells. Liter cultures of terrific broth were grown at 37° C. until an OD600 of ˜0.8 was reached and then induced with isopropyl β-D-1-thiogalactopyranoside (IPTG; final concentration of 500 μM). Afterwards, cultures were grown for 3 hours at 37° C. For protein purification, cell pellets were resuspended in lysis buffer (50 mM Tris, pH 8.5, 5 mM EDTA, 0.5 mM DTT, 0.5 mM PMSF) supplemented with a cocktail of protease inhibitors. Cells were lysed by sonication, centrifuged, and the resulting pellet was collected. The homogenized pellet was resuspended in wash buffer (50 mM Tris, pH 8.5, 0.5 M NaCl, 5 mM EDTA, 0.5 mM DTT, 0.5 mM PMSF, protease inhibitor cocktail) and collected by centrifugation. Inclusion body dissolution was then conducted as previously reported (PNAS 112(9) (2015) 2894-2899; www.pnas.org/cgi/doi/10.1073/pnas.1421953112; herein incorporated by reference in its entirety). The solubilized APOL1 protein was applied to a nickel column (HisTrap, GE Life Sciences) preequilibrated in buffer A (50 mM Tris, pH 8.5, 0.15 M NaCl, 1% zwittergent 3-14, protease inhibitor cocktail). The resin was washed with buffer B (50 mM Tris, pH 8.5, 0.15 M NaCl, 0.1% DDM) and TEV cleavage was conducted on column overnight. Afterwards, the column was washed with buffer B, followed by His-washing buffer (50 mM Tris, pH 8.5, 0.15 M NaCl, 0.1% DDM, 10 mM imidazole). The protein was then removed from the resin using His-elution buffer (50 mM Tris, pH 8.5, 0.15 M NaCl, 0.1% DDM, 250 mM imidazole). The sample was further purified by size exclusion chromatography using a Superdex 200 Increase column (GE Life Sciences) in 50 mM Tris, pH 8.5, 0.15 M NaCl, and 0.1% DDM buffer. All APOL1 proteins (G0, G1, and G2) were generated at Viva Biotech (Shanghai) Ltd.
(§3) Modified HMI-9 media preparation (https://tryps.rockefeller.edu/trypsru2_culture_media_preparation.html; herein incorporated by reference in its entirety). Trypanosomes were cultured in modified HMI-9 media consisting of IMDM (ThermoFisher, 12440053), 10% heat-inactivated FBS (Gibco, 10082-147), 10% Serum Plus (Sigma-Aldrich, 14008C), 1×HMI-9 supplement stock, and 1% hypoxanthine stock. The 10×HMI-9 supplement stock was made by dissolving 280 mg bathocuproine disulfonic acid (Sigma-Aldrich, 146625), 1820 mg cysteine (add after bathocuproine) (Sigma-Aldrich, 30089), 1100 mg pyruvic acid (Sigma-Aldrich, 107360), 100 mg uracil (Sigma-Aldrich, U0750), 100 mg cytosine (Sigma-Aldrich, C3506) and 140 μL 2-mercaptoethanol (Sigma-Aldrich, M3148) in 1000 mL of water. The resulting solution was aliquoted and stored at −20° C. The hypoxanthine stock was made by dissolving 4 g of NaOH into 1000 mL of water. Afterwards, 13.6 g hypoxanthine (Sigma-Aldrich, H9377) was added to this mixture. The resulting solution was aliquoted and stored at −20° C.
(§4) Assay Setup. Trypanosoma brucei Lister 427 VSG221 (ATCC, PRA-382) cells were cultured in modified HMI-9 media. All experiments were performed in 384-well, white, solid bottom, tissue culture treated plates (Greiner, 781080). Assay ready plates were generated with duplicate 11-point compound dilution series that consisted of 2-fold stepwise dilutions (0.4% DMSO final). To each well, was added 20 μL of 2 μg/mL of APOL1 G0, G1, or G2 recombinant protein in modified HMI-9 media using a MultiDrop Combi (final APOL1 protein concentration=[…]). Trypanosomes were counted using a hemacytometer and diluted in modified HMI-9 media to a concentration of 1.25×10^4 cell/mL. […]

[4] = system: Trypanosoma brucei Lister 427 VSG221 with APOL1 G2 recombinant protein; test: APOL1 G2 trypanosome cell rescue assay (Example B5); details: geometric mean of at least 2 assay runs, † = single assay run
Procedure: as §1, §2, §3, §4

[5] = system: Trypanosoma brucei Lister 427 VSG221 with APOL1 G1 recombinant protein; test: APOL1 G1 trypanosome cell rescue assay (Example B5); details: geometric mean of at least 2 assay runs, † = single assay run
Procedure: as §1, §2, §3, §4

[6] = biological target: T1, APOL1 G2 (Homo sapiens, UniProt O14791, DEL388-389); test: APOL1-mediated calcium transport (calcium influx) assay, HEK T-REx/GCaMP6f/APOL1 G2 K6.3 cells, FLIPR TETRA; details: prevention of calcium influx; geometric mean of at least 2 assay runs; † = average of a technical replicate from a single assay run
T1 construct: expressed in transfected cells; host or cells: HEK293 T-REx clonal line stably expressing GCaMP6f (HEK T-REx/GCaMP6f/APOL1 G2 K6.3), doxycycline induced
T1 sequence (O14791 with tags, fused parts or gaps DEL388-389): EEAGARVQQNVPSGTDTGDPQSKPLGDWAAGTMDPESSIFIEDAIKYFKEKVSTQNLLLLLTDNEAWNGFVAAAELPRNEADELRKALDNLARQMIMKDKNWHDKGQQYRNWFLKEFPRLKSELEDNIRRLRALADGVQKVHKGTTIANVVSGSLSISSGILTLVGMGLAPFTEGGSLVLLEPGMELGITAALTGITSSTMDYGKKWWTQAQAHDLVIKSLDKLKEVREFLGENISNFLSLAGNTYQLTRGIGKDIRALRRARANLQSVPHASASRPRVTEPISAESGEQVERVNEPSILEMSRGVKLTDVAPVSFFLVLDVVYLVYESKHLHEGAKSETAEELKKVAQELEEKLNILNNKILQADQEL
In short: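 A HEK293 T-REx clone stably expressing GCaMP6f had APOL1 G2 induced with doxycycline (20 ng/mL solution added) for 6 h. Cells were then washed into Ca2+-free Tyrode's buffer (pH 7.4) and preincubated with compounds (duplicate 8-point) for 10 min at room temperature. Ca2+ injection to 5 mM final produced FLIPR GCaMP fluorescence, giving AC50 for influx inhibition (geometric mean, ≥2 runs).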

[7] = HEK293 clonal line overexpressing APOL1 G1
[8] = read-out: APOL1 G0 Trypanosome Rescue EC50, Trypanosoma brucei Lister 427 VSG221 with APOL1 G0 recombinant protein, 20 hours, CellTiter-Glo
[9] = read-out: APOL1 G2 Trypanosome Rescue EC50, Trypanosoma brucei Lister 427 VSG221 with APOL1 G2 recombinant protein, 20 hours, CellTiter-Glo
[10] = read-out: APOL1 G1 Trypanosome Rescue EC50, Trypanosoma brucei Lister 427 VSG221 with APOL1 G1 recombinant protein, 20 hours, CellTiter-Glo
[11] = Homo sapiens, HEK293, HEK293 overexpressing APOL1 G2
[12] = Homo sapiens, HEK293, HEK293 clonal line overexpressing APOL1 G1
[13] = Trypanosoma brucei, 20 h, read-out: APOL1 G0 Trypanosome Rescue EC50, Trypanosoma brucei Lister 427 VSG221 with APOL1 G0 recombinant protein, 20 hours, CellTiter-Glo
[14] = Trypanosoma brucei, 20 h, read-out: APOL1 G2 Trypanosome Rescue EC50, Trypanosoma brucei Lister 427 VSG221 with APOL1 G2 recombinant protein, 20 hours, CellTiter-Glo
[15] = Trypanosoma brucei, 20 h, read-out: APOL1 G1 Trypanosome Rescue EC50, Trypanosoma brucei Lister 427 VSG221 with APOL1 G1 recombinant protein, 20 hours, CellTiter-Glo

CN1C(=O)C2(CCN(CCOc3ccc(C4(S(C)(=O)=O)CC(O)C4)cc3)CC2)c2cc(C(F)F)ccc21 (single isomer, unassigned) [Compound 279, 5-(difluoromethyl)-1-methyl-1′-(2-{4-[(trans) or (cis)-3-hydroxy-1-methanesulfonylcyclobutyl]phenoxy}ethyl)-1,2-dihydrospiro[indole-3,4′-piperidin]-2-one]
EC50 ([1]; HEK293 overexpressing APOL1 G2): 60 nM | EC50 [2, 7]: 234 nM | EC50 [3, 8]: 213 nM | EC50 [4, 9]: 83.1 nM | EC50 [5, 10]: 283 nM

CS(=O)(=O)C1(c2ccc(OCCN3CCC4(CC3)C(=O)Nc3ccc(C(F)F)cc34)cc2)CC(O)C1 (single isomer, unassigned) [Compound 282, 5-(difluoromethyl)-1′-(2-{4-[(trans) or (cis)-3-hydroxy-1-methanesulfonylcyclobutyl]phenoxy}ethyl)-1,2-dihydrospiro[indole-3,4′-piperidin]-2-one]
EC50 ([1]; HEK293 overexpressing APOL1 G2): 130 nM | EC50 [2, 7]: 383 nM | EC50 [3, 8]: 181 nM | EC50 [4, 9]: 59.8 nM | EC50 [5, 10]: 230 nM

O=C1CCc2cc(OCCN3CCC4(CC3)C(=O)Nc3ccc(C(F)F)cc34)cnc2N1C1CC(CO)C1 (single isomer, unassigned) [Compound 309, 5-(difluoromethyl)-1′-[2-({7-oxo-8-[(cis) or (trans)-3-(hydroxymethyl)cyclobutyl]-5,6,7,8-tetrahydro-1,8-naphthyridin-3-yl}oxy)ethyl]-1,2-dihydrospiro[indole-3,4′-piperidin]-2-one]
EC50 [1, 11]: 55.9 nM | EC50 [2, 12]: 134 nM | EC50 [3, 13]: 58.2 nM | EC50 [4, 14]: 23.4 nM | EC50 [5, 15]: 70.6 nM

CC1(O)CC(CN2C(=O)CCc3cc(OCCN4CCC5(CC4)C(=O)Nc4ccc(C(F)F)cc45)cnc32)C1 (single isomer, unassigned) [Compound 311, 5-(difluoromethyl)-1′-{2-[(7-oxo-8-{[(cis) or (trans)-3-hydroxy-3-methylcyclobutyl]methyl}-5,6,7,8-tetrahydro-1,8-naphthyridin-3-yl)oxy]ethyl}-1,2-dihydrospiro[indole-3,4′-piperidin]-2-one]
EC50 [1, 11]: 38.3 nM | EC50 [2, 12]: 100 nM | EC50 [3, 13]: 37.4 nM | EC50 [4, 14]: 13.8 nM | EC50 [5, 15]: 50.3 nM

CC1(O)CC(CN2C(=O)CCc3cc(OCCN4CCC5(CC4)C(=O)Nc4ccc(C(F)F)cc45)cnc32)C1 (single isomer, unassigned) [Compound 312, 5-(difluoromethyl)-1′-{2-[(7-oxo-8-{[(trans) or (cis)-3-hydroxy-3-methylcyclobutyl]methyl}-5,6,7,8-tetrahydro-1,8-naphthyridin-3-yl)oxy]ethyl}-1,2-dihydrospiro[indole-3,4′-piperidin]-2-one]
EC50 ([1]; HEK293 overexpressing APOL1 G2): 24.3 nM | EC50 [2, 7]: 66.5 nM | EC50 [3, 8]: 28.2 nM | EC50 [4, 9]: 10.1 nM | EC50 [5, 10]: 34.4 nM

[2H]C([2H])(Oc1cnc2c(c1)CCC(=O)N2[C@H]1C[C@](O)(C([2H])([2H])[2H])C1)C([2H])([2H])N1CCC2(CC1)C(=O)Nc1ccc(Cl)cc12 [Compound 462, 5-chloro-1′-[2-({7-oxo-8-[(cis)-3-hydroxy-3-(^2H3)methylcyclobutyl]-5,6,7,8-tetrahydro-1,8-naphthyridin-3-yl}oxy)(1,1,2,2-^2H4)ethyl]-1,2-dihydrospiro[indole-3,4′-piperidin]-2-one]
EC50 [1, 11]: 17.8 nM | AC50 [6]: 943 nM | EC50 [2, 12]: 53.4 nM

[2H]C([2H])(Oc1cc(C(F)(F)F)c2c(c1)ncn2[C@H]1C[C@@](C)(O)C1)C([2H])([2H])N1CCC2(CC1)C(=O)Nc1ccc(Cl)cc12 [Compound 463, 5-chloro-1′-[2-({1-[(cis)-3-hydroxy-3-methylcyclobutyl]-7-(trifluoromethyl)-1H-1,3-benzodiazol-5-yl}oxy)(1,1,2,2-^2H4)ethyl]-1,2-dihydrospiro[indole-3,4′-piperidin]-2-one]
EC50 [1, 11]: 5.84 nM | AC50 [6]: 2840 nM | EC50 [2, 12]: 13.2 nM
